# Measurements taken from US20080312271A1, “AZABENZIMIDAZOLYL COMPOUNDS” (Pfizer Inc., priority 2006, published 2008).
# Biological target: T1, mGluR2 receptor (metabotropic glutamate receptor 2) (Homo sapiens, UniProt Q14416)
# T1 construct: expressed in transfected cells
# Experiment: mGluR2 Potentiator Screen, FLIPR, EC10-EC20 glutamate challenge
# Assay type: cell-based
# Conditions: not given
# Method: Procedure for mGluR2 Potentiator Screen NLB methods EC10-EC20 Challenge Cell Culture and Plating:
# Cells used for this screen are HEK cells stably transfected with the mGluR2 receptor (metabotropic glutamate receptor 2) and the Gα15 G protein. Clones were identified by functional activity (FLIPR). Cells are grown in growth media containing: DMEM High Glucose with Glutamine and Na Pyruvate (GIBCO), 10% (v/v) Heat inactivate FBS (GIBCO), G418 500 ug/ml (from 50 mg/ml stock) (GIBCO) and Blasticidin 3 ug/ml (from 5 mg/ml stock made in H2O) (Invitrogen).
# 2 days before the assay cell are trypsinized with 0.25% trysin/EDTA (GIBCO), spun down at 1000 rpm for 5 minutes, resuspended in growth media and plated on polystyrene 384 well black wall 1 clear bottom poly-D-lysine coated plates at a density of approximately 18,000 cells/well in a volume of 50 μL per well. One day before the assay the growth media is removed from the plates by flicking, and replaced with media containing DMEM High Glucose without Glutamine and Na Pyruvate (GIBCO) and 10% (v/v) dialyzed FBS (GIBCO). The reason for the removal of glutamine the day before the assay is to minimize the amount of glutamate that will be present during the assay, as endogenous glutarnate released from the cells can reduce the fluorescent response and interfere with the FLIPR screen.
# FLIPR Methods and Data Analysis:
# On the day of the assay, the FLIPR assay is performed using the following methods.
# The pH is adjusted to 7.4 with 1 M NaOH. Prepare a 2 mM (approx.) stock solution of Fluo-4,am (Molecular Probes) dye in DMSO-22 μl DMSO per 50 ug vial (440 μL per 1 mg vial). Make a 1 mM (approx.) flou-4, PA working solution per vial by adding 22 μl of 20% pluronic acid (PA), (Molecular Probes) in DMSO to each 50 ug vial (440 μL per 1 mg vial). Prepare a 250 mM Probenecid (Sigma) stock solution by dissolving 0.71 g into 5 ml 1N NaOH and 5 ml assay buffer (for each liter of assay wash buffer)L Make 4 uM (approx.) dye incubation media by adding […] per 11 ml DMEM high glucose without glutamine (220 ml per 1 mg vial). Add 110 μL probenecid stock per 11 ml (2.5 mM final [concentration]). To the dye media add 3 units/ml of glutamic-pyruvic transaminase (GPT, Sigma) and 3 mM Na Pyruvate. The assay has worked with dye concentrations from 2 uM to 8 uM dye as well. To the assay buffer from drug preparation, add 1.83 mls DMSO and 400 μL 15.8% P104 (from New Leads biology) per liter for final concentrations of 0.18% DMSO and 0.006% P104. To the assay buffer for cell washing, add probenecid in the same manner and concentration that was used for the dye media.
# Remove growth media from cell plates by flicking. Add 50 μl/well dye solution. Incubate 1 hour at 37° C. and 5% CO2. Remove dye solution and wash 3 times with assay buffer+probenecid (100 μl probenecid stock per 10 ml buffer), leaving 30 μL/well assay buffer. Wait at least 10-15 minutes. Compounds and agonist challenge additions are performed with the FLIPR. The 1st addition is for test compounds, which are added as 15 μL of 4×[concentration] of potentiator. The second 2nd addition is 15 μL of 4×[concentration] of agonist or challenge. This achieves 1× concentration of all compounds only after 2nd addition. The 1st and 2nd additions are performed separately using the FLIPR, which give 2 different data files. Compounds are pretreated at least 30 minutes before agonist addition,
# Results are analyzed by dividing the peak fluorescent value of the FLIPR response by the […] to achieve a ratio response. The ratios are then analyzed by curve fitting programs. […] Maximum values for dose response curves (forced fitting) are derived from standards on the plate.
# Compound Preparation and Glutamate Challenge:
# Compounds are delivered as 10 mM DMSO stocks or as powders, Powders are solubilized in DMSO at 10 mM (as solubility allows). Compounds are sonicated in a heated water bath (35-40° C.) for at least 20 minutes.
# T1 sequence (Q14416 19-872, species assumed): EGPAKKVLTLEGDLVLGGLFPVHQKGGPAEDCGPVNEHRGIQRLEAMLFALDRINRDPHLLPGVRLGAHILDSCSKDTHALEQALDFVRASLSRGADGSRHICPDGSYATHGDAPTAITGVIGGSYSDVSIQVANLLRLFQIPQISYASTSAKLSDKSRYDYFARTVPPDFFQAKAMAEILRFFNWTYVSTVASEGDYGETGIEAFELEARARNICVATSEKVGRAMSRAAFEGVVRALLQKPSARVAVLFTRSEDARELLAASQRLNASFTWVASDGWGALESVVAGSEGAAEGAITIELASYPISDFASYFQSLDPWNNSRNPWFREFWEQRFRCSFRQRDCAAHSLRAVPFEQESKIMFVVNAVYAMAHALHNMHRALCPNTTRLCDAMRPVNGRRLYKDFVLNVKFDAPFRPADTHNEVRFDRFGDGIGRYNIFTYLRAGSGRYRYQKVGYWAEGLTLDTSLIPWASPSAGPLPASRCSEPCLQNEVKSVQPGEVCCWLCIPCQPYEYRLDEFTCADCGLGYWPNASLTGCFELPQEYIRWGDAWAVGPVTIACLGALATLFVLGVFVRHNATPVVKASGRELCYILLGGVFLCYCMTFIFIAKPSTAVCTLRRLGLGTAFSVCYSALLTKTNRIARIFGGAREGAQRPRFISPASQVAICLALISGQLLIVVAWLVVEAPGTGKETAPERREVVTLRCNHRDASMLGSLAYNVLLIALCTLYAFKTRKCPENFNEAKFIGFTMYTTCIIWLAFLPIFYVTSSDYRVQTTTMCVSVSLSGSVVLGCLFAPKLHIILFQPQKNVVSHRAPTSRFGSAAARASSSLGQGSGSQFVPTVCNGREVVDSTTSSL
row,EC50 [nM],Structure (SMILES)
1,194,C[C@@H]1CN(Cc2nc3cnccc3n2C)CC[C@@H]1c1ccc(OC(F)(F)F)cc1Cl (relative stereo) [compound 188]
2,621,C[C@@H]1CN(Cc2nc3ncccc3n2C)CC[C@@H]1c1ccc2c(c1)CCCC2 (relative stereo) [compound 189]
3,573,C[C@@H]1CN(Cc2nc3cnccc3n2C)CC[C@@H]1c1ccc2c(c1)CCCC2 (relative stereo) [compound 190]
4,610,CC(C)Oc1cc(F)ccc1[C@H]1CCN(Cc2nc3ncccc3n2C)C[C@H]1C (relative stereo) [compound 191]
5,1170,CC(C)Oc1cc(F)ccc1[C@H]1CCN(Cc2nc3cnccc3n2C)C[C@H]1C (relative stereo) [compound 192]
6,590,CC(C)Oc1ccc([C@H]2CCN(Cc3nc4cnccc4n3C)C[C@H]2C)cc1Cl (relative stereo) [compound 193]
7,> 5360,CCOc1ccc([C@H]2CCN(Cc3nc4cnccc4n3C)C[C@H]2C)cc1F (relative stereo) [compound 194]
8,506,CC(C)Oc1ccc([C@H]2CCN(Cc3nc4ncccc4n3C)C[C@H]2C)cc1Cl (relative stereo) [compound 195]
9,128,C[C@@H]1CN(Cc2nc3ncccc3n2C)CC[C@@H]1c1ccc(F)c(C(F)(F)F)c1 (relative stereo) [compound 197]
10,176,C[C@@H]1CN(Cc2nc3cnccc3n2C)CC[C@@H]1c1ccc(F)c(C(F)(F)F)c1 (relative stereo) [compound 198]
11,122,C[C@@H]1CN(Cc2nc3cnccc3n2C)CC[C@@H]1c1ccc(OC(F)F)cc1F (relative stereo) [compound 199]
12,469,C[C@@H]1CN(Cc2nc3ncccc3n2C)CC[C@@H]1c1ccc2c(c1)CCO2 (relative stereo) [compound 200]
13,> 1070,C[C@@H]1CN(Cc2nc3cnccc3n2C)CC[C@@H]1c1ccc2c(c1)CCO2 (relative stereo) [compound 201]
14,125,C[C@@H]1CN(Cc2nc3cnccc3n2C)CC[C@@H]1c1ccc(OC(F)F)cc1Cl (relative stereo) [compound 202]
15,43.6,C[C@@H]1CN(Cc2nc3ncccc3n2C)CC[C@@H]1c1ccc(OC(F)F)cc1Cl (relative stereo) [compound 203]
16,28.3,C[C@@H]1CN(Cc2nc3ncccc3n2C)CC[C@@H]1c1ccc(F)cc1C(F)(F)F (relative stereo) [compound 204]
17,243,Cc1cc(F)ccc1[C@H]1CCN(Cc2nc3cnccc3n2C)C[C@H]1C (relative stereo) [compound 205]
18,88.6,Cc1cc(F)ccc1[C@H]1CCN(Cc2nc3ncccc3n2C)C[C@H]1C (relative stereo) [compound 206]
19,108,C[C@@H]1CN(Cc2nc3ncccc3n2C)CC[C@@H]1c1ccc(Cl)cc1C(F)(F)F (relative stereo) [compound 207]

row,EC50 [nM],Structure (SMILES)
1,110,C[C@@H]1CN(Cc2nc3cnccc3n2C)CC[C@@H]1c1ccc(Cl)cc1C(F)(F)F (relative stereo) [compound 208]
2,159,Cc1ccc([C@H]2CCN(Cc3nc4cnccc4n3C)C[C@H]2C)c(Cl)c1 (relative stereo) [compound 209]
3,62.6,Cc1ccc([C@H]2CCN(Cc3nc4ncccc4n3C)C[C@H]2C)c(Cl)c1 (relative stereo) [compound 210]
4,209,C[C@@H]1CN(Cc2nc3cnccc3n2C)CC[C@@H]1c1ccc(OC(F)(F)F)c(Cl)c1 (relative stereo) [compound 212]
5,253,C[C@@H]1CN(Cc2nc3ncccc3n2C)CC[C@@H]1c1ccc(OC(F)(F)F)c(Cl)c1 (relative stereo) [compound 213]
6,124,COc1cc(OC(F)(F)F)ccc1[C@H]1CCN(Cc2nc3cnccc3n2C)C[C@H]1C (relative stereo) [compound 214]
7,59.4,COc1cc(OC(F)(F)F)ccc1[C@H]1CCN(Cc2nc3ncccc3n2C)C[C@H]1C (relative stereo) [compound 215]
8,287,CC(C)Oc1ccc([C@H]2CCN(Cc3nc4cnccc4n3C)C[C@H]2C)c(C(F)(F)F)c1 (relative stereo) [compound 216]
9,606,CO[C@@H]1CN(Cc2nc3cnccc3n2C)CC[C@@H]1c1ccc(C(F)(F)F)cc1 (relative stereo) [compound 227]
10,242,"C[C@@H]1CN(Cc2nc3cnccc3n2C)CC[C@@H]1c1ccccc1F (single isomer, unassigned) [compound 73]"
11,> 359,"C[C@@H]1CN(Cc2nc3cnccc3n2C)CC[C@@H]1c1ccccc1F (single isomer, unassigned) [compound 117]"
12,33.4,"C[C@@H]1CN(Cc2nc3ncccc3n2C)CC[C@@H]1c1ccc(C(F)(F)F)cc1 (single isomer, unassigned) [compound 118]"
13,> 1990,"C[C@@H]1CN(Cc2nc3ncccc3n2C)CC[C@@H]1c1ccc(C(F)(F)F)cc1 (single isomer, unassigned) [compound 119]"
14,28.8,"C[C@@H]1CN(Cc2nc3ncccc3n2C)CC[C@@H]1c1ccc(Cl)cc1F (single isomer, unassigned) [compound 122]"
15,787,"COc1cc(C(F)(F)F)ccc1[C@H]1CCN(Cc2nc3ncccc3n2C)C[C@H]1C (single isomer, unassigned) [compound 130]"
16,21.9,"COc1cc(C(F)(F)F)ccc1[C@H]1CCN(Cc2nc3ncccc3n2C)C[C@H]1C (single isomer, unassigned) [compound 131]"
17,< 9.25,"C[C@@H]1CN(Cc2nc3ncccc3n2C)CC[C@@H]1c1ccc(C(F)(F)F)cc1F (single isomer, unassigned) [compound 138]"
18,993,"C[C@@H]1CN(Cc2nc3ncccc3n2C)CC[C@@H]1c1ccc(C(F)(F)F)cc1F (single isomer, unassigned) [compound 139]"
19,2050,"C[C@@H]1CN(Cc2nc3cnccc3n2C)CC[C@@H]1c1ccc(Cl)cc1F (single isomer, unassigned) [compound 140]"

# Same assay, conditions: mGluR2 potentiator screen, FLIPR, EC10-EC20 glutamate challenge
row,EC50 [nM],Structure (SMILES)
1,101,C[C@@H]1CN(Cc2nc3ncccc3n2C)CC[C@@H]1c1ccc(C(F)(F)F)c(Cl)c1 (relative stereo) [compound 234]
2,135,C[C@@H]1CN(Cc2nc3cnccc3n2C)CC[C@@H]1c1ccc(C(F)(F)F)c(Cl)c1 (relative stereo) [compound 235]
3,88,Cc1cc(C(F)(F)F)ccc1[C@H]1CCN(Cc2nc3ncccc3n2C)C[C@H]1C (relative stereo) [compound 239]
4,113,C[C@@H]1CN(Cc2nc3ncccc3n2C)CC[C@@H]1c1ccc(F)c(F)c1F (relative stereo) [compound 249]
5,> 221,C[C@@H]1CN(Cc2nc3cnccc3n2C)CC[C@@H]1c1ccc(F)c(F)c1F (relative stereo) [compound 250]
6,67.7,C[C@@H]1CN(Cc2nc3ncccc3n2C)CC[C@@H]1c1ccc(OC(F)F)cc1F (relative stereo) [compound 257]
7,125,C[C@@H]1CN(Cc2nc3cnccc3n2C)CC[C@@H]1c1ccc(F)cc1C(F)(F)F (relative stereo) [compound 258]
8,75.5,C[C@@H]1CN(Cc2nc3ncccc3n2C)CC[C@@H]1c1ccc(F)cc1OC(F)F (relative stereo) [compound 274]
9,96.5,C[C@@H]1CN(Cc2nc3cnccc3n2C)CC[C@@H]1c1ccc(F)cc1OC(F)F (relative stereo) [compound 275]
